The values below come from ChEMBL document CHEMBL3507680, “University of Dundee, Gates Library screen for HepG2 cell viability”.

SMILES strings stand for the structures.

This series is described as follows: Human HepG2 cell viability assay in 384 well format. The series is classed as toxicity, cell-based. More on the design: dose 125 nL, time 70.5 hour; concentration not given beside the values. Particulars: HepG2 cells, read-out: Inhibition.
With `COc1ccc(NC(=O)Cn2nc(C)c(C)cc2=O)cc1Cl`, the cytotoxicity at 70.5 h was found to be 0.971%.
As for `COCCOC1CCN(C(C(=O)O)c2ccc(F)c(Cl)c2)CC1` (stereo not drawn), the cytotoxicity at 70.5 h was -9.08%.
As to `Cc1nnsc1C(=O)N1C[C@H]2CC[C@@H]1CN(c1cnccn1)C2`, the cytotoxicity at 70.5 h is -5.21%.
As to `OCC1(Cc2ccc(F)cc2F)CCCN(Cc2ccncc2)C1` (stereo not drawn), the cytotoxicity at 70.5 h was -5.76%.
With `COc1cccc2c1OCC(CNC(=O)Cc1c(C)nc(N)nc1C)C2` (stereo not drawn), the cytotoxicity at 70.5 h was -7.12%.
As to `CC(C)(C)C(=O)NCCNc1cc(N2CCCC2)ncn1`, the cytotoxicity at 70.5 h was -8.01%.
For `COc1cccc(NC(=O)c2cc3c([nH]c2=O)CCCC3=O)c1`, the cytotoxicity at 70.5 h is -8.19%.
The figure for `Cc1ccc(OCC(C)NS(C)(=O)=O)cc1C` (stereo not drawn) is -3.53%; for `Cc1cc(CN2CCc3nc(C)n(C)c(=O)c3CC2)[nH]n1` it is -5.95%; for `COCCn1cnnc1CCNc1cc(C)nc2ccnn12` it is -2.09%.
Take `CC(C)(C)n1ncc2c1NC(=O)CC2c1cccc(F)c1` (stereo not drawn): the cytotoxicity at 70.5 h stood at 3.13%.
To `COc1ccc(-c2n[nH]cc2CN(C)CCc2scnc2C)c(F)c1` belongs 1.84%; to `Cc1nn(C)c2nc(N3CCC(C(O)Cc4ccccc4)CC3)sc12` (stereo not drawn), -2.11%.
Take `CCC(CO)N(CC=C(C)C)Cc1ccsc1` (stereo not drawn): the cytotoxicity at 70.5 h was -2.49%.
The figure for `COc1ccc(C(C)NC(=O)C2CCN(S(C)(=O)=O)CC2)cc1C` (stereo not drawn) is -4.77%; for `CCCn1ncc(C(=O)N2CCCC(OCc3ccccn3)C2)c1C` (stereo not drawn) it is -4.73%.
As to `CCc1cc(NCCCC2CCOC2)n2nccc2n1` (stereo not drawn), the cytotoxicity at 70.5 h was -1.93%.
`Fc1ccc(NC2CCCN(Cc3ccncc3)C2)cc1` (stereo not drawn): the cytotoxicity at 70.5 h stood at 26.1%.
For the molecule `Cc1nc2c(cc1C(=O)Nc1ccccc1Cl)c(=O)n(C)c(=O)n2C`, the cytotoxicity at 70.5 h was -9.88%.
As to `CCS(=O)(=O)N1CCN(c2cc(-n3cnc(C)c3C)nc(C)n2)CC1`, the cytotoxicity at 70.5 h was -2.19%.
On to `CCCNC(=O)C(C)Oc1ccc(F)cc1` (stereo not drawn), for which the cytotoxicity at 70.5 h was -12.9%.
To `COc1ccc(OC)c(NC(=O)c2cc3c([nH]c2=O)CCCC3=O)c1` belongs -4.78%.
The figure for `CC(C)COc1ccccc1CN(C)C(=O)c1cc(=O)[nH]c(=O)[nH]1` is -8.79%; for `CC(C1CCN(Cc2cnn(C)c2C2CC2)CC1)N(C)C` (stereo not drawn) it is -7.09%; for `Cc1nc(CCN(C)C(=O)CN2CCCCCC2)no1` it is -9.68%.
To `CCN(Cc1ccc(S(C)(=O)=O)cc1)Cc1nc(COC)no1` belongs -11.1%; to `c1cnn(CC2CN(Cc3csc(C4CCCCC4)n3)CCO2)c1` (stereo not drawn), -0.469%; to `CCNc1cc2c(nn1)CCN(C(=O)c1c(C)noc1C)C2`, -2.94%.
Regarding `c1ccc(-c2nc(CN3CCOC(Cn4cncn4)C3)cs2)cc1` (stereo not drawn), the cytotoxicity at 70.5 h was -3.05%.
On to `CCNc1cc2c(nn1)CCN(C(=O)Cc1ccc(C)s1)C2`, for which the cytotoxicity at 70.5 h was determined as 0.997%.
With `Cc1cnn(CCC(=O)NC2CCc3nc(C)cn3C2)c1` (stereo not drawn), the cytotoxicity at 70.5 h is -3.94%.
To `O=C(CCCn1cncn1)NC1CCc2nccn2C1` (stereo not drawn) belongs -0.0953%; to `CCc1cnc(CN(C(C)=O)C2CCN(CC(=O)N3CCCC3)C2)o1` (stereo not drawn), -4.28%.
To `Cc1cccc(OCCNC(=O)CN2CCN(C)CC2C)c1` (stereo not drawn) belongs 25.2%; to `CSC(C)C(=O)N(C)CCCc1cc(-c2ccccc2)no1` (stereo not drawn), 27.1%; to `CCc1noc(C(C)N2CCN(CCOCC(F)(F)F)CC2)n1` (stereo not drawn), -2.37%.
On to `Cc1ccc(CC(=O)N2CCCC(c3ccn[nH]3)C2)cn1` (stereo not drawn), for which the cytotoxicity at 70.5 h worked out at 0.114%.
To `O=C(Nc1cccc(CNCc2cccnc2)c1)C1CCCC1` belongs -4.79%; to `CC(c1cccc(Cl)c1)N(C)Cc1nc2c(cnn2C)c(=O)[nH]1` (stereo not drawn), -1.63%; to `COc1ccc(C(C)N(C)Cc2nc3c(cnn3C)c(=O)[nH]2)cc1` (stereo not drawn), -8.42%.
Take `CNC(=O)NC(=O)C(C)N(C)CCCc1cc(-c2ccccc2)no1` (stereo not drawn): the cytotoxicity at 70.5 h is -1.15%.
`COc1cccc(N2CCN(C(=O)CN(C)c3cnccn3)CC2)c1`: the cytotoxicity at 70.5 h is -1.38%.
`O=C(O)c1cc(NS(=O)(=O)c2ccc(Br)s2)c(F)cc1F`: the cytotoxicity at 70.5 h is 1.5%.
Take `O=C1NCCN1C1CCN(CCOc2ccccc2F)CC1`: the cytotoxicity at 70.5 h is -5.97%.
The figure for `CCn1ccnc1CN1CCN(Cc2cc(C#N)ccc2F)CC1` is -3.57%; for `Clc1ccc(CN2CCCC2Cn2cncn2)c2ncccc12` (stereo not drawn) it is -2.37%.
Take `CCOC1CCN(C(=O)CN(C)c2cnccn2)CC1`: the cytotoxicity at 70.5 h is -4.29%.
To `Cc1ccc(CC(=O)N2CCCC(c3nccs3)C2)cn1` (stereo not drawn) belongs -4.34%; to `CC(C)Oc1ccc(CNC(=O)NCC(C)(C)C(N)=O)cc1F`, -5.2%.
Regarding `CNc1nc(CNC(=O)Nc2ccc([S+](C)[O-])c(F)c2)cs1` (stereo not drawn), the cytotoxicity at 70.5 h is -2.75%.
As to `CC(c1cc(F)ccc1F)N(C)Cc1nc2c(cnn2C)c(=O)[nH]1` (stereo not drawn), the cytotoxicity at 70.5 h worked out at 10.4%.
On to `Clc1ccc2cccnc2c1CN1CCCCC1Cn1cncn1` (stereo not drawn), for which the cytotoxicity at 70.5 h was -4.31%.
For the molecule `CC(=O)N1CCCN(C(=O)NCCNc2ccccn2)CC1`, the cytotoxicity at 70.5 h turned out to be 2.71%.
The figure for `CN(Cc1ccc(N(C)C)cc1)C(=O)c1cc2c([nH]c1=O)CCCC2=O` is -4.35%.
`Cc1nc(CNC(=O)N(C)Cc2cnn(C)c2)cs1`: the cytotoxicity at 70.5 h stood at 9.64%.
Regarding `CC(NC(=O)NCCCn1cncn1)c1ccc2c(c1)CC(=O)N2` (stereo not drawn), the cytotoxicity at 70.5 h was -1.37%.
Consider `COCCCNC(=O)CN(C)C(=O)c1ccccc1O`, for which the cytotoxicity at 70.5 h is -3.02%.
For the molecule `CC(NC(=O)NCCCn1cncn1)c1ccncc1` (stereo not drawn), the cytotoxicity at 70.5 h amounted to 2.26%.
The figure for `CN(Cc1ccsc1)C(=O)c1cc2c([nH]c1=O)CCC2` is -4.53%; for `COCCCNC(=O)CN(C)C(=O)c1cc(Cl)ccc1O` it is 0.174%; for `Cn1cc(C2CCCN2C(=O)c2ccc(NC3CC3)nc2)cn1` (stereo not drawn) it is 0.0682%.
The figure for `CCc1nc(CN2CCCN(C(=O)c3cnc(C)cn3)CC2)cs1` is 1.16%; for `CCc1nc(CN2CCCN(C(=O)c3ccnc(C)n3)CC2)cs1` it is 3.9%; for `CNC(=O)c1ccc(C(=O)N2CCCC2c2c(C)nn(C)c2C)cn1` (stereo not drawn) it is -4.27%.
The figure for `O=C(c1cnccn1)N1CCN(Cc2cscn2)CC1` is 31.3%.
With `Cc1nn(C)c(C)c1C1CCCN1C(=O)c1ccc(C(N)=O)cn1` (stereo not drawn), the cytotoxicity at 70.5 h was found to be 4.05%.
Take `Cc1ncsc1C(=O)NCCNC(=O)c1cccs1`: the cytotoxicity at 70.5 h is -3.7%.
The figure for `CC(NC(=O)NCCCn1cccn1)c1ccc2c(c1)OCCCO2` (stereo not drawn) is 13.2%; for `Cc1cccc(OCCN2CCN(Cc3cnn(CCO)c3)CC2)c1` it is -1.35%; for `Cc1ccc(CNC(=O)CN2CCOC(Cn3cccn3)C2)s1` (stereo not drawn) it is -4.52%.
Take `Cc1ccccc1OCCN1CCN(Cc2cnn(CCO)c2)CC1`: the cytotoxicity at 70.5 h is 4.76%.
In the case of `Cc1csc(N2CCN(CC(=O)N3CCCC3)CC2C)n1` (stereo not drawn), the cytotoxicity at 70.5 h is 1.56%.
For the molecule `O=C(Nc1cccc(CNCc2cccs2)c1)C1CC1`, the cytotoxicity at 70.5 h was -8.51%.
